# In US20060094698A1, “Self-administered contraceptive injection of oily solution” (priority 2002, published 2006):
# Tests used:
# [1] = Viscosity, Brookfield model DV-III; assay type: physicochemical
# Protocol: (§1) Using these solvents, the following solutions were prepared: • 100 mg/ml etonogestrel undecanoate in the different solvents • 50 mg/ml etonogestrel undecanoate in the different solvents • 200 mg/ml MENT undecanoate in the different solvents • 100 mg/ml MENT undecanoate in the different solvents • 50 mg/ml etonogestrel undecanoate+100 mg/ml MENT undecanoate in the different solvents
# (§2) The solubility of the compounds in the solvents was determined visually. The viscosity was determined using a Brookfield model DV-III. The density of the solutions was determined using a Mettler Toledo DA-100M density meter.
# [2] = Density, Mettler Toledo DA-100M density meter; assay type: physicochemical
# Protocol: as §1, §2
# [3] = Solubility / appearance of solutions determined visually; settings: for solubility (visual) in all four tested solvents: desired concentration 50 mg/ml etonogestrel-undecanoate, 100 mg/ml MENT-undecanoate
# Protocol: as §1, §2
# [4] = Pharmacokinetics of etonogestrel esters after one i.m. injection in the rabbit (plasma etonogestrel by LC-MSMS); assay type: in vivo; settings: for peak levels of etonogestrel: one i.m. injection 20 mg/kg in arachis oil (40 mg/ml), rabbit plasma
# Protocol: For the determination of the pharmacokinetic profile of the different etonogestrel-esters after parenteral application, i.m. application in the castrated rabbit model was chosen instead of s.c. Briefly, rabbits were injected once (day 1) with indicated etonogestrel-esters at 20 mg/kg in arachis oil (with a concentration of 40 mg/ml). At day 1, 2, 3, 4, 5, 6, 7, 8, 10, 12, 14, 21, 28, 35, 49, 63, 77, 92, 106, 120 and 133 blood was collected from the ear arteria, in EDTA-containing tubes. EDTA plasma was prepared (1500 g, 15 min) and stored at −20° C. With LC-MSMS, the amount of parent compound (etonogestrel) was determined in these samples. The lower limit of this new assay is 0.5 nmol/l, from 0-250 nmol/l a linear curve was obtained with a correlation coefficient of 0.9998.
# [5] = Pharmacokinetics of androgen esters after one s.c. injection in the castrated rabbit (plasma MENT or testosterone by LC-MSMS); assay type: in vivo; settings: one s.c. injection 20 mg/kg in arachis oil (100 mg/ml)
# Protocol: For the determination of the pharmacokinetic profile of the different androgen-esters after s.c. application, the castrated rabbit model was selected as the model which is most similar to humans. Briefly, rabbits were injected once (day 1) with indicated androgen-esters at 20 mg/kg in arachis oil (with a concentration of 100 mg/ml). At day 2, 3, 4, 5, 8, 15, 22, 36, 44 and 58 blood was collected from the ear arteria, in EDTA-containing tubes. EDTA plasma was prepared (1500 g, 15 min) and stored at −20° C. With LC-MSMS, the amount of parent compound (testosterone or MENT) was determined in these samples. The lower limit of this new assay is 2 nmol/l, from 0-500 nmol/I a linear curve was obtained with a correlation coefficient of 0.9998.
# [6] = one IM injection, hypogonadal men, FIG. 5 (Nieschlag and Behre 1997); cited from earlier work
# [7] = one i.m. injection 20 mg/kg in arachis oil, rabbit
# [8] = solvent arachis oil + 50% benzyl benzoate, etonogestrel undecanoate 50 mg/ml and/or MENT undecanoate 100 mg/ml
# [9] = solvent arachis oil, etonogestrel undecanoate 50 mg/ml and/or MENT undecanoate 100 mg/ml
# [10] = solvent ethyl undecanoate + 50% benzyl benzoate, etonogestrel undecanoate 50 mg/ml and/or MENT undecanoate 100 mg/ml
# [11] = solvent ethyl undecanoate, etonogestrel undecanoate 50 mg/ml and/or MENT undecanoate 100 mg/ml
smiles,measurement,setting,value
CCCCCCCCCCC(=O)OCC [Ethyl undecanoate],Viscosity,[1]; solvent alone,2.6
same,Density,[2]; solvent alone,0.861
same,Appearance,[3]; solvent alone,Clear colourless solution
C#C[C@]1(OC(=O)CCCCCC)CC[C@H]2[C@@H]3CCC4=CC(=O)CC[C@@H]4[C@H]3C(=C)C[C@@]21CC [Etonogestrel-heptanoate],peak levels of etonogestrel,[4],120 nmol/L
C#C[C@]1(OC(=O)CCCCCCCC)CC[C@H]2[C@@H]3CCC4=CC(=O)CC[C@@H]4[C@H]3C(=C)C[C@@]21CC [Etonogestrel-nonanoate],peak levels of etonogestrel,[4],lower peak levels
same,duration of action (etonogestrel levels above 1 nmol/l),[4]; [7],extended duration
CCCCCCCCCCC(=O)O[C@H]1CC[C@H]2[C@H]3[C@H](CC[C@]12C)[C@H]1CCC(=O)C=C1C[C@H]3C [MENT-undecanoate],Viscosity,[1]; [8],35.0 cps
same,Viscosity,[1]; [9],97.2 cps
same,Viscosity,[1]; [10],6.1 cps
same,Viscosity,[1]; [11],4.0 cps
same,Density,[2]; [8],1.009 g/mL
same,Density,[2]; [9],0.924 g/mL
same,Density,[2]; [10],0.979 g/mL
same,Density,[2]; [11],0.879 g/mL
same,heating temperature necessary to dissolve,[3]; 200 mg/ml in arachis oil,approximately 50 °C
same,solubility (visual) in all four tested solvents,[3],could be dissolved at two times the desired concentration
same,Appearance,[3]; [8],Clear yellowish solution
same,Appearance,[3]; [9],Clear yellowish solution
same,Appearance,[3]; [10],Clear colourless solution
same,Appearance,[3]; [11],Clear colourless solution
"CCCCCCC(=O)O[C@H]1CC[C@H]2[C@@H]3CCC4=CC(=O)CC[C@]4(C)[C@H]3CC[C@]12C [Testosterone enanthate, testosterone enanthate]",pharmacokinetic profile of released MENT or testosterone,[5],high peak of testosterone
C#CC1(OC(=O)CCCCCCCCC)CCC2C3CCC4=CC(=O)CCC4C3C(=C)CC21CC (centres unmarked) [etonogestrel decanoate],peak levels of etonogestrel,[4],24 nmol/L
same,time of initial peak level of etonogestrel,[4]; [7],5 days
C#C[C@]1(OC(=O)CCCCCCCCCCC)CC[C@H]2[C@@H]3CCC4=CC(=O)CC[C@@H]4[C@H]3C(=C)C[C@@]21CC [etonogestrel dodecanoate],peak levels of etonogestrel,[4],9 nmol/L
same,time of initial peak level of etonogestrel,[4]; [7],8 days
C#C[C@]1(OC(=O)CCCCCCCCCCCC)CC[C@H]2[C@@H]3CCC4=CC(=O)CC[C@@H]4[C@H]3C(=C)C[C@@]21CC [etonogestrel tridecanoate],peak levels of etonogestrel,[4],no initial levels of etonogestrel were observed
C#C[C@]1(OC(=O)CCCCCCCCCC)CC[C@H]2[C@@H]3CCC4=CC(=O)CC[C@@H]4[C@H]3C(=C)C[C@@]21CC [etonogestrel undecanoate],peak levels of etonogestrel,[4],13 nmol/L
same,duration of action (etonogestrel levels above 1 nmol/l),[4]; [7],more than 92 days
same,Viscosity,[1]; [8],28.1 cps
same,Viscosity,[1]; [9],76.6 cps
same,Viscosity,[1]; [10],4.7 cps
same,Viscosity,[1]; [11],3.2 cps
same,Density,[2]; [8],1.006 g/mL
same,Density,[2]; [9],0.919 g/mL
same,Density,[2]; [10],0.978 g/mL
same,Density,[2]; [11],0.870 g/mL
same,solubility (visual) in all four tested solvents,[3],could be dissolved at two times the desired concentration
same,Appearance,[3]; [8],Clear yellowish solution
same,Appearance,[3]; [9],Clear yellowish solution
same,Appearance,[3]; [10],Clear colourless solution
same,Appearance,[3]; [11],Clear colourless solution
"C#C[C@]1(O)CC[C@H]2[C@@H]3CCC4=CC(=O)CC[C@@H]4[C@H]3C(=C)C[C@@]21CC [etonogestrel, (17α)-13-ethyl-17-hydroxy-11-methylene-18,19-dinorpregn-4-en-20-yn-3-one, reference compound]",peak levels of etonogestrel,[4],200 nmol/L
same,time in which etonogestrel levels declined to below 1 nmol/l,[4]; [7],28 days
CCCCCCCCCCC(=O)O[C@H]1CC[C@H]2[C@@H]3CCC4=CC(=O)CC[C@]4(C)[C@H]3CC[C@]12C [testosterone undecanoate],pharmacokinetics of serum testosterone in humans,[6],low initial release and steady-state levels of long duration
